# Measured values: US9920037B2, “Diaryl isoxazoline compound” (Elanco Tiergesundheit AG, priority 2014, dated 2018)
# Assays:
# [1] = tested on: Rhipicephalus sanguineus nymphs; assay: Activity in vivo against Rhipicephalus sanguineus nymphs on Mongolian gerbils (spray application); conditions: 1.0 mg/kg animal biomass, Mongolian gerbils (Meriones unguiculatus)
# Description: On day 0, gerbils are treated with the respective test compound at a given dose by spray application. On day +1 (+2), the animals are infested with nymphs of R. sanguineus. Ticks are left on the animals until full repletion. Seven days after infestation nymphs dropped off fully engorged are collected and counted. Efficacy in killing is expressed as a tick number reduction in comparison with a placebo treated group, using the Abbot's formula.
# [2] = tested on: Lepeophtheirus salmonis copepodids; assay: Activity in vitro against Lepeophtheirus salmonis at copepodid stage; format: cell-based; conditions: 0.16 ng/ml sea water; 1 hour contact, then 48 h in untreated sea water
# Description: Sea lice copepodids were used to seed a 96-well plate containing the test substances to be evaluated for antiparasitic activity. The racemic compound of formula (I) according to the present invention and the racemic compound No. 1.48 according to WO2010/070068, page 47 were tested by serial dilution in order to determine its minimal effective dose (MED). Copepodids were left in contact with each test compound diluted in sea water for 1 hour. They were then incubated in untreated sea water for 48 h. Efficacy against sea lice was then confirmed if no copepodid moved over a period of 80 seconds.
# [3] = tested on: adult R. sanguineus ticks; assay: Activity in vivo against Rhipicephalus sanguineus ticks (dog tick) on rabbits; conditions: spray application on ears; for threshold concentration where the efficacy drops below 90%: rabbits
# Description: On day 0, rabbits are treated with the test compound at a given dose by spray application on their ears only. On day +1, the animals are infested on their ears with adult R. sanguineus ticks (sex ratio 1:1). Evaluation of efficacy is performed 24 h, 48 h, and 72 h after infestation by counting the numbers of dead and live ticks recovered from the animals. Efficacy is expressed as comparison with a placebo treated group using the Abbot's formula. Infestations can be repeated at weekly intervals until efficacy drops. The racemic compound of formula (I) according to the present invention and the racemic compound No. 1.48 according to WO2010/070068, page 47 were tested at different concentrations in order to determine the threshold concentration where the efficacy drops below 90%.
# [4] = tested on: sea lice Lepeophtheirus salmonis; assay: Activity in vivo against copepodids (Lepeophtheirus salmonis) on Atlantic salmon, medicated feed; conditions: Atlantic salmon (Salmo salar L.), medicated feed 1 mg/kg/day for 7 consecutive days; counted 10 days after treatment end
# Description: The study used two groups of 45 Atlantic salmon (Salmo salar L.), each, with an average weight of 400 g per fish. Fish were challenged with sea lice copepodids Lepeophtheirus salmonis) (Cohort I). When cohort I reached pre-adult stage, all fish were challenged with a second cohort of sea lice copepodids (Cohort II).
# Treatment was initiated when sea lice in cohort I became pre-adult/adults and sea lice in cohort II were early chalimus stages:
# One group was treated with medicated feed-pellet containing the (S)-enantiomer of the compound of formula (I) at 1 mg/kg/day, during 7 consecutive days. One group was a placebo control group. The medicated pellets were prepared by dry coating commercially available fish feed pellets with a pre-mix containing the (S)-enantiomer of the compound of formula (I) to reach a content of 0.02% (w/w) active ingredient in the fish feed.
# Sea lice were counted 10 days after treatment end.
SMILES,"efficacy (tick number reduction vs placebo, Abbot's formula) [1]",efficacy (no copepodid moved over 80 seconds) [2],"efficacy (vs placebo, Abbot's formula) ([3]; 15 mg/m^2, rabbits)",threshold concentration where the efficacy drops below 90% [3],"efficacy (vs placebo, Abbot's formula) ([3]; 3 mg/m^2, rabbits)","efficacy (vs placebo, Abbot's formula) ([3]; 7.5 mg/m^2, rabbits)",efficacy (sea lice count) [4]
"C#CCNC(=O)CNC(=O)c1sc(C2=NOC(c3cc(Cl)cc(Cl)c3)(C(F)(F)F)C2)cc1C (racemic) [racemic compound No. 1.48, reference compound]",77%,0%,82%,15 mg/m^2,–,–,–
C#CCNC(=O)CNC(=O)c1sc(C2=NOC(c3cc(Cl)c(Cl)c(Cl)c3)(C(F)(F)F)C2)cc1C (racemic) [racemic compound of formula (I)],87%,100%,–,3 mg/m^2,73%,93%,–
C#CCNC(=O)CNC(=O)c1sc(C2=NO[C@@](c3cc(Cl)c(Cl)c(Cl)c3)(C(F)(F)F)C2)cc1C [(S)-enantiomer of the compound of formula (I)],–,–,–,–,–,–,100%
